Results published in patent US20200131669A1, “CYCLIC PEPTIDE COMPOUND HAVING HIGH MEMBRANE PERMEABILITY, AND LIBRARY CONTAINING SAME” (Chugai Seiyaku Kabushiki Kaisha, priority 2017, published 2020).
Starred links: 1 amine or outer side, 2 acyl side, 3 side chain; linkers in the order of their positions; H or OH if unused. Positions of bridges follow the written chain, without caps; N, C: chain ends. Non-standard residues stand in square brackets, D forms with d. Residues, ends and D or L forms follow the SMILES beside them. *: point of attachment. Glu(NHSO2Me) = CS(=O)(=O)NC(=O)CC[C@H](N)C(=O)O; Phe(4-CF3) = N[C@@H](Cc1ccc(C(F)(F)F)cc1)C(=O)O; X12 = CCCC[C@@H](O)[C@H](N[*:1])C(=O)[*:2]; X15 = CN([C@H](CCN1CCOCC1)C(=O)[*:2])[*:1]; Tyr(3-F) = N[C@@H](Cc1ccc(O)c(F)c1)C(=O)O; NMeW = CN[C@@H](Cc1c[nH]c2ccccc12)C(=O)O; NMehPhe = CN[C@@H](CCc1ccccc1)C(=O)O; Gly(NCH2CH2Ph) = O=C(O)CNCCc1ccccc1; hhPhe = N[C@@H](CCCc1ccccc1)C(=O)O; Gly(N-(CH2)2OEt) = CCOCCNCC(=O)O; NMeF = CN[C@@H](Cc1ccccc1)C(=O)O; NMeGABA = CN(CCCC(=O)[*:2])[*:1]; NMeI = CC[C@H](C)[C@H](NC)C(=O)O; hPhe = N[C@@H](CCc1ccccc1)C(=O)O; NMeL = CN[C@@H](CC(C)C)C(=O)O; Propyl(2R-OH) = C[C@@H](O)C*; NMeV = CN[C@H](C(=O)O)C(C)C; NMeAbu = CC[C@H](NC)C(=O)O; NPentylGly = CCCCCNCC(=O)O; NMeA = CN[C@@H](C)C(=O)O; Piperidide = C1CCN(*)CC1; Me2NCH2CH2 = CN(C)CC*; NBuGly = CCCCNCC(=O)O; NPrGly = CCCNCC(=O)O; X11 = FC(F)C(F)(F)C*; Sar = CNCC(=O)O; tBu = CC(C)(C)*

Test: Caco-2 membrane permeability, improved method as used in the following Examples (96-well, 20 to 24 h preincubation)
Assay type: in vitro ADME
Conditions: human, Caco-2, Caco-2
How it was run: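 Caco-2 monolayers were grown three weeks and preincubated 20–24 h at 37 °C with compound in DMEM+FaSSIF (1% DMSO) apically. The assay then used compound in FaSSIF/HBSS (1% DMSO, pH 6.0) apically and HBSS with 4% BSA (pH 7.4) basally. Basal samples were taken at 180 min for LC/MS, and Papp (cm/sec) was calculated.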

Structure (SMILES) | Papp A→B at 180 min
CCCC[C@@H](O)[C@@H]1NC(=O)[C@H](CC(C)C)N(C)C(=O)[C@H](Cc2ccccc2)N(C)C(=O)[C@H](C)NC(=O)[C@H](Cc2ccccc2)N(C)C(=O)[C@H](CC(C)C)N(C)C(=O)[C@H](C(C)C)NC(=O)[C@H](C)N(C)C(=O)C[C@@H](C(=O)N2CCCCC2)NC(=O)[C@H](CC(C)C)N(C)C(=O)CN(C)C1=O [pd469] ([NMeA]V[NMeL][NMeF]A[NMeF][NMeL][X12][Sar][NMeL]D-Piperidide; lactam N-11) | 2.5 ×10⁻⁶ cm/s
CC(C)C[C@H]1C(=O)N[C@H](C(=O)N2CCCCC2)CC(=O)N(C)[C@@H](C)C(=O)N[C@@H](CCCc2ccccc2)C(=O)N(C)[C@@H](CC(C)C)C(=O)N(C)[C@@H](Cc2ccccc2)C(=O)N[C@@H](C)C(=O)N(C)[C@@H](Cc2ccccc2)C(=O)N(C)[C@@H](C(C)C)C(=O)N[C@@H]([C@@H](C)O)C(=O)N(C)CC(=O)N1C [pd365] ([NMeA][hhPhe][NMeL][NMeF]A[NMeF][NMeV]T[Sar][NMeL]D-Piperidide; lactam N-11) | 1.5 ×10⁻⁶ cm/s
CC(C)C[C@@H]1NC(=O)[C@H](Cc2ccccc2)N(C)C(=O)[C@@H](C(C)C)NC(=O)C[C@@H](C(=O)N2CCCCC2)NC(=O)[C@H](C)N(C)C(=O)[C@H](CC(C)C)N(C)C(=O)[C@H](CCc2ccccc2)NC(=O)[C@H](CC(C)C)N(C)C(=O)CN(C)C(=O)[C@H]([C@@H](C)O)NC(=O)[C@H](CC(C)C)N(C)C1=O [pd312] ([dV][NMeF]L[NMeL]T[Sar][NMeL][hPhe][NMeL][NMeA]D-Piperidide; lactam N-11) | 1.5 ×10⁻⁶ cm/s
CCCCN1CC(=O)N(C)[C@@H](C(C)C)C(=O)N[C@H](C(=O)N2CCCCC2)CC(=O)N(C)[C@@H](CC(C)C)C(=O)N[C@@H](CCC(=O)NS(C)(=O)=O)C(=O)N(C)[C@@H](CC(C)C)C(=O)N(C)[C@@H](Cc2ccccc2)C(=O)N[C@@H](CC(C)C)C(=O)N(C)[C@@H](Cc2ccccc2)C(=O)N(C)[C@@H](CC(C)C)C(=O)N[C@@H]([C@@H](C)O)C1=O [pd62] ([NMeL][Glu(NHSO2Me)][NMeL][NMeF]L[NMeF][NMeL]T[NBuGly][NMeV]D-Piperidide; lactam N-11) | < 0.13 ×10⁻⁶ cm/s
CCCCCN1CC(=O)N(C)[C@@H](Cc2ccccc2)C(=O)N[C@@H](CC(C)C)C(=O)N(C)[C@@H](CC)C(=O)N[C@@H]([C@@H](C)O)C(=O)N(C)CC(=O)N(C)[C@@H](Cc2ccccc2)C(=O)N(C)[C@@H](CC)C(=O)N[C@@H](COC(C)(C)C)C(=O)N(C)[C@@H](CC(C)C)C(=O)N[C@H](C(=O)N2CCCCC2)CC1=O [pd405] ([NPentylGly][NMeF]L[NMeAbu]T[Sar][NMeF][NMeAbu]S(tBu)[NMeL]D-Piperidide; lactam N-11) | 2.2 ×10⁻⁶ cm/s
CC(C)C[C@H]1C(=O)N[C@@H](COC(C)(C)C)C(=O)N(C)[C@@H](C)C(=O)N(C)[C@@H](CC(C)C)C(=O)N[C@H](C(=O)N2CCCCC2)CC(=O)N[C@H](C)C(=O)N(C)[C@@H](Cc2ccccc2)C(=O)N[C@@H](COc2ccccc2Cl)C(=O)N(C)[C@@H](CC(C)C)C(=O)N[C@@H]([C@@H](C)O)C(=O)N(C)CC(=O)N1C [pd340] | 1.2 ×10⁻⁶ cm/s
CCCN1CC(=O)N(C)[C@@H](Cc2ccccc2)C(=O)N[C@@H](COCC(F)(F)C(F)F)C(=O)N(C)[C@@H](CC(C)C)C(=O)N[C@@H]([C@@H](C)O)C(=O)N(C)CC(=O)N(C)[C@@H](Cc2ccccc2)C(=O)N(C)[C@@H](CC(C)C)C(=O)N[C@@H](COC(C)(C)C)C(=O)N(C)[C@@H](CC(C)C)C(=O)N[C@H](C(=O)N2CCCCC2)CC1=O [pd349] ([NPrGly][NMeF]S(X11)[NMeL]T[Sar][NMeF][NMeL]S(tBu)[NMeL]D-Piperidide; lactam N-11) | 1.8 ×10⁻⁶ cm/s
CC[C@H](C)[C@@H]1NC(=O)[C@H](CC(C)C)N(C)C(=O)[C@H](COC[C@@H](C)O)NC(=O)[C@H](Cc2ccccc2)N(C)C(=O)CN(C)C(=O)C[C@@H](C(=O)N2CCCCC2)NC(=O)[C@H](CC(C)C)N(C)C(=O)[C@H](COC(C)(C)C)NC(=O)[C@H](CC(C)C)N(C)C(=O)[C@H](Cc2ccccc2)N(C)C(=O)CN(C)C1=O [pd497] ([Sar][NMeF]S(Propyl(2R-OH))[NMeL]I[Sar][NMeF][NMeL]S(tBu)[NMeL]D-Piperidide; lactam N-11) | 3.3 ×10⁻⁶ cm/s
CC[C@H](C)[C@@H]1NC(=O)[C@H](CC(C)C)N(C)C(=O)[C@@H](C)NC(=O)C[C@@H](C(=O)N2CCCCC2)NC(=O)[C@H](CC)N(C)C(=O)[C@H](Cc2ccccc2)N(C)C(=O)[C@H](COC(C)(C)C)NC(=O)[C@H](CC(C)C)N(C)C(=O)[C@H](CC)N(C)C(=O)[C@H]([C@@H](C)O)NC(=O)CN(CCc2ccccc2)C1=O [pd414] ([dA][NMeL]I[Gly(NCH2CH2Ph)]T[NMeAbu][NMeL]S(tBu)[NMeF][NMeAbu]D-Piperidide; lactam N-11) | 1.6 ×10⁻⁶ cm/s
CCCCN1CC(=O)N(C)[C@H](CCN2CCOCC2)C(=O)N[C@H](C(=O)N2CCCCC2)CC(=O)N(C)[C@@H](C)C(=O)N[C@@H](CC(C)C)C(=O)N(C)[C@@H](CC(C)C)C(=O)N(C)[C@@H](Cc2ccccc2)C(=O)N[C@@H](CC(C)C)C(=O)N(C)[C@@H](Cc2ccccc2)C(=O)N(C)[C@@H](CC(C)C)C(=O)N[C@@H]([C@@H](C)O)C1=O [pd454] ([NMeA]L[NMeL][NMeF]L[NMeF][NMeL]T[NBuGly][X15]D-Piperidide; lactam N-11) | 1.2 ×10⁻⁶ cm/s
CC[C@H](C)[C@@H]1NC(=O)[C@H](Cc2ccccc2)N(C)C(=O)CN(C)C(=O)C[C@@H](C(=O)N2CCCCC2)NC(=O)[C@H](CC(C)C)N(C)C(=O)[C@H](COC(C)(C)C)NC(=O)[C@H](CC(C)C)N(C)C(=O)[C@H](CCc2ccccc2)N(C)C(=O)CN(C)C(=O)[C@H]([C@@H](C)O)NC(=O)[C@H](CC(C)C)N(C)C1=O [pd324] ([Sar][NMeF]I[NMeL]T[Sar][NMehPhe][NMeL]S(tBu)[NMeL]D-Piperidide; lactam N-11) | 3.3 ×10⁻⁶ cm/s
CC(C)C[C@@H]1NC(=O)[C@H](CC(C)C)N(C)C(=O)CCCN(C)C(=O)C[C@@H](C(=O)N2CCCCC2)NC(=O)[C@H](CC(C)C)N(C)C(=O)[C@H](CC(C)C)N(C)C(=O)[C@H]([C@@H](C)O)NC(=O)[C@H](CC(C)C)N(C)C(=O)[C@H](COCCN(C)C)NC(=O)[C@H](Cc2ccccc2)N(C)C(=O)[C@H](Cc2ccccc2)N(C)C1=O [pd54] ([NMeGABA][NMeL]L[NMeF][NMeF]S(Me2NCH2CH2)[NMeL]T[NMeL][NMeL]D-Piperidide; lactam N-11) | 0.073 ×10⁻⁶ cm/s
CCOCCN1CC(=O)N(C)[C@@H](CC(C)C)C(=O)N[C@@H](COC(C)(C)C)C(=O)N(C)[C@@H](Cc2ccccc2)C(=O)N(C)[C@@H](CC)C(=O)N[C@H](C(=O)N2CCCCC2)CC(=O)N[C@H](CC(C)C)C(=O)N(C)[C@@H](Cc2ccccc2)C(=O)N[C@@H](CC(C)C)C(=O)N(C)[C@@H](CC)C(=O)N[C@@H]([C@@H](C)O)C1=O [pd416] ([dL][NMeF]L[NMeAbu]T[Gly(N-(CH2)2OEt)][NMeL]S(tBu)[NMeF][NMeAbu]D-Piperidide; lactam N-11) | 3.1 ×10⁻⁶ cm/s

Same assay, conditions: human, Caco-2, Caco-2 (cm/sec)

Structure (SMILES) | Papp A→B at 180 min
CC(C)C[C@H]1NC(=O)C[C@@H](C(=O)N2CCCCC2)NC(=O)[C@H](C)N(C)C(=O)[C@H](CC(C)C)N(C)C(=O)[C@H](COC(C)(C)C)NC(=O)[C@H](CC(C)C)N(C)C(=O)CN(C)C(=O)[C@H]([C@@H](C)O)NC(=O)[C@H](CC(C)C)N(C)C(=O)[C@H](Cc2ccc(O)c(F)c2)NC(=O)[C@H](Cc2ccccc2)N(C)C1=O [pd118] ([dL][NMeF][Tyr(3-F)][NMeL]T[Sar][NMeL]S(tBu)[NMeL][NMeA]D-Piperidide; lactam N-11) | 0.2 ×10⁻⁶ cm/s
CC(C)C[C@@H]1NC(=O)[C@H](CC(C)C)N(C)C(=O)[C@H](C)N(C)C(=O)[C@@H](C(C)C)NC(=O)C[C@@H](C(=O)N2CCCCC2)NC(=O)[C@H]([C@@H](C)O)NC(=O)[C@H](C)N(C)C(=O)CN(C)C(=O)[C@H](CC(C)C)N(C)C(=O)[C@H](Cc2c[nH]c3ccccc23)NC(=O)[C@H](Cc2ccccc2)N(C)C1=O [pd100] ([dV][NMeA][NMeL]L[NMeF]W[NMeL][Sar][NMeA]TD-Piperidide; lactam N-11) | 0.11 ×10⁻⁶ cm/s
CC(C)C[C@@H]1NC(=O)[C@H](CC(C)C)N(C)C(=O)[C@H](C)N(C)C(=O)C[C@@H](C(=O)N2CCCCC2)NC(=O)[C@H](CC(C)C)N(C)C(=O)[C@H](Cc2ccccc2)N(C)C(=O)[C@H](Cc2ccccc2)N(C)C(=O)[C@H]([C@@H](C)O)NC(=O)[C@H](Cc2ccccc2)N(C)C1=O [pd211] ([NMeA][NMeL]L[NMeF]T[NMeF][NMeF][NMeL]D-Piperidide; lactam N-9) | 1.4 ×10⁻⁶ cm/s
CC[C@H](C)[C@H]1C(=O)N[C@@H]([C@@H](C)O)C(=O)N(C)CC(=O)N(C)[C@@H](CC(C)C)C(=O)N[C@H](C(=O)N2CCCCC2)CC(=O)N(C)[C@@H](CC(C)C)C(=O)N[C@@H](CC(C)C)C(=O)N(C)[C@@H](CC(C)C)C(=O)N(C)[C@@H](Cc2c[nH]c3ccccc23)C(=O)N[C@@H](CC(C)C)C(=O)N(C)[C@@H](Cc2ccccc2)C(=O)N1C [pd111] ([NMeL]L[NMeL][NMeW]L[NMeF][NMeI]T[Sar][NMeL]D-Piperidide; lactam N-11) | 0.16 ×10⁻⁶ cm/s
CC[C@H](C)[C@@H]1NC(=O)[C@H](CC(C)C)NC(=O)[C@H](CC(C)C)N(C)C(=O)[C@H](C)NC(=O)C[C@@H](C(=O)N2CCCCC2)NC(=O)[C@H](CC(C)C)N(C)C(=O)[C@H]([C@@H](C)O)NC(=O)[C@H](Cc2ccc(C(F)(F)F)cc2)NC(=O)[C@H](CC(C)C)N(C)C1=O [pd144] (A[NMeL]LI[NMeL][Phe(4-CF3)]T[NMeL]D-Piperidide; lactam N-9) | 2.1 ×10⁻⁶ cm/s
